According to the supplement of paper PMC10307832:

Tests used:
Assay in all cases: relative viability (nuclei count vs DMSO), 5 days (fraction); higher = more cells survive
[1] = compound: NCC(=O)Nc1ccc(-n2nc(C(F)(F)F)cc2-c2ccc3c(ccc4ccccc43)c2)cc1 + CC1(C)CCC(c2ccc(Cl)cc2)=C(CN2CCN(c3ccc(C(=O)NS(=O)(=O)c4ccc(N[C@H](CCN5CCOCC5)CSc5ccccc5)c(S(=O)(=O)C(F)(F)F)c4)cc3)CC2)C1 [Navitoclax] (partner 0.5 µM)
In short: (§1)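 Each reported value is a median over duplicate plates. It expresses relative viability: treated-well nuclei count divided by vehicle-well nuclei count. Lung cancer cell lines in 1536-well plates were dosed by pin tool a day after seeding, alone with one drug or with a fixed anchor-drug dose plus five library-drug doses (not always all listed) in √10 steps, and nuclei were counted after 5 days.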

[2] = compound: C1CSC2=C(C(=O)N1)SC3=C2C=C(C=C3)O [kb NB 142-70] + Cc1cc(Nc2cc(N3CCN(C)CC3)nc(Sc3ccc(NC(=O)C4CC4)cc3)n2)n[nH]1 [Tozasertib] (partner 0.1 µM)
In short: as §1

[3] = compound: NCC(=O)Nc1ccc(-n2nc(C(F)(F)F)cc2-c2ccc3c(ccc4ccccc43)c2)cc1 + C[C@]1(O)C[C@@H](c2nc(-c3ccc4ccc(-c5ccccc5)nc4c3)c3c(N)nccn32)C1 [Linsitinib] (partner 1 µM)
In short: as §1

[4] = compound: NCC(=O)Nc1ccc(-n2nc(C(F)(F)F)cc2-c2ccc3c(ccc4ccccc43)c2)cc1 + CC(=O)c1c(C)c2cnc(Nc3ccc(N4CCNCC4)cn3)nc2n(C2CCCC2)c1=O [Palbociclib] (partner 0.5 µM)
In short: as §1

Cell Line | relative viability ([1]; first compound 0.02 µM) | relative viability ([1]; first compound 0.06325 µM) | relative viability ([1]; first compound 0.2 µM) | relative viability ([1]; first compound 0.6325 µM) | relative viability ([1]; first compound 2 µM) | relative viability ([2]; first compound 0.1 µM) | relative viability ([2]; first compound 1 µM) | relative viability ([2]; first compound 3.162 µM) | relative viability ([3]; first compound 0.02 µM) | relative viability ([3]; first compound 0.06325 µM) | relative viability ([3]; first compound 0.2 µM) | relative viability ([3]; first compound 0.6325 µM) | relative viability ([3]; first compound 2 µM) | relative viability ([4]; first compound 0.02 µM) | relative viability ([4]; first compound 0.06325 µM) | relative viability ([4]; first compound 0.2 µM) | relative viability ([4]; first compound 0.6325 µM) | relative viability ([4]; first compound 2 µM)
NCI-H1755 | 1.03 | 1.04 | 1.03 | 1.03 | 0.991 | 0.627 | 0.492 | 0.63 | 1.08 | 1.01 | 0.98 | 0.991 | 0.995 | 0.48 | 0.444 | 0.448 | 0.471 | 0.434
HCC-78 | 0.854 | 0.868 | 0.729 | 0.715 | 0.908 | 0.389 | 0.468 | 0.411 | 0.572 | 0.563 | 0.498 | 0.49 | 0.541 | 0.541 | 0.482 | 0.526 | 0.403 | 0.496
IA-LM | 0.814 | 0.808 | 0.898 | 0.86 | 0.827 | – | – | – | 0.802 | 0.39 | 0.558 | 0.706 | 0.539 | – | – | – | – | –
NCI-H322M | 1.18 | 1.18 | 1.34 | 1.18 | 1.1 | 0.464 | 0.519 | 0.45 | 1.04 | 0.916 | 0.924 | 0.884 | 0.976 | 0.51 | 0.502 | 0.388 | 0.505 | 0.493
NCI-H3122 | 1.04 | 1.01 | 1.03 | 1.01 | 0.984 | 0.366 | 0.459 | 0.165 | 1.06 | 1.09 | 1.03 | 1.04 | 1.04 | 0.197 | 0.182 | 0.179 | 0.206 | 0.155
COR-L23 | 1.1 | 0.935 | 1.01 | 1.07 | 1 | 0.237 | 0.157 | 0.134 | 0.989 | 0.927 | 1.05 | 0.896 | 0.95 | 0.297 | 0.293 | 0.346 | 0.261 | 0.245
NCI-H2087 | 0.849 | 1.11 | 0.939 | 0.969 | 1.03 | 0.267 | 0.201 | 0.141 | 0.867 | 1.02 | 1.03 | 1.1 | 0.988 | 0.256 | 0.278 | 0.262 | 0.249 | 0.24
LC-2-ad | 0.456 | 0.44 | 0.484 | 0.492 | 0.535 | 0.451 | 0.428 | 0.341 | 0.996 | 0.94 | 0.876 | 0.852 | 0.897 | 0.507 | 0.462 | 0.463 | 0.469 | 0.473
NCI-H650 | – | – | – | – | – | 0.747 | 0.668 | 0.435 | 0.638 | 1.01 | 1.02 | 0.862 | 1.08 | 0.377 | 0.315 | 0.329 | 0.358 | 0.296
NCI-H1792 | 0.694 | 0.722 | 0.617 | 0.693 | 0.617 | – | – | – | 0.507 | 0.647 | 0.549 | 0.625 | 0.552 | 0.651 | – | 0.696 | 0.591 | 0.66
ChaGo-K-1 | 0.931 | 1.06 | 0.636 | 0.939 | 1.19 | 0.244 | 0.246 | 0.219 | – | – | – | – | – | 0.919 | 0.929 | 0.933 | 0.973 | 0.917
NCI-H2342 | – | – | – | – | – | 0.447 | 0.614 | 0.544 | – | – | – | – | – | 0.627 | 0.552 | 0.479 | 0.494 | 0.523
NCI-H1299 | 1.02 | 1.06 | 1.09 | 1.04 | 1.07 | – | – | – | 0.937 | 0.971 | 1.05 | 0.929 | 0.999 | – | – | – | – | –
NCI-H1650 | 1.25 | 1.5 | 1.32 | 1.1 | 1.31 | 0.47 | 0.334 | 0.339 | – | – | – | – | – | 0.377 | 0.37 | 0.225 | 0.319 | 0.343
SW 900 | – | – | – | – | – | 0.608 | 0.472 | 0.407 | – | – | – | – | – | 0.513 | 0.661 | 0.534 | 0.535 | 0.641
NCI-H596 | 0.593 | 0.968 | 1.04 | 1.1 | 0.841 | 0.804 | 0.881 | 0.749 | 1.05 | 1.06 | 0.989 | 1.02 | 1.04 | – | – | – | – | –
NCI-H1648 | – | – | – | – | – | 0.396 | 0.524 | 0.398 | – | – | – | – | – | 0.283 | 0.267 | 0.268 | 0.281 | 0.264
NCI-H522 | – | – | – | – | – | 0.521 | 0.565 | 0.61 | – | – | – | – | – | 0.844 | 0.996 | 0.998 | 0.934 | 0.992
A549 | 1.24 | 1.19 | 1.24 | 1.17 | 0.7 | – | – | – | 0.626 | 0.599 | 0.608 | 0.579 | 0.614 | – | – | – | – | –
NCI-H2170 | 0.56 | 0.598 | 0.578 | 0.561 | 0.6 | 0.688 | 0.735 | 0.481 | – | – | – | – | – | 0.374 | 0.41 | 0.391 | 0.38 | 0.355
NCI-H661 | – | – | – | – | – | 0.337 | 0.356 | 0.353 | 0.573 | 0.584 | 0.582 | 0.496 | 0.566 | 0.412 | 0.402 | 0.39 | 0.416 | 0.433
NCI-H1563 | – | – | – | – | – | – | – | – | 1.33 | 1.22 | 1.2 | 1.19 | 1.28 | – | – | – | – | –
ABC-1 | – | – | – | – | – | 0.178 | 0.165 | 0.169 | 0.731 | 0.917 | – | 0.915 | 0.855 | 0.725 | 0.592 | – | 0.807 | 0.658
LCLC-103H | – | – | – | – | – | 0.472 | 0.524 | 0.417 | 1.16 | 0.997 | 1.12 | 1.11 | 0.978 | 0.41 | 0.503 | 0.483 | 0.413 | 0.504
